The values below come from patent US9956293B2, “Targeted therapeutics” (Madrigal Pharmaceuticals, Inc., priority 2014, dated 2018).

Structures are written as SMILES.

The nature of data set [1]: Tissue distribution of SDC-TRAPs in tumor-bearing mice: plasma, tumor, heart (Examples 14-15). As to conditions: mouse, in vivo.
Procedure: (§1) Tissue Distribution Extraction Procedure for SDC-TRAP Tumor Samples
(§2) A 150 ng/mL solution of SDC-TRAP-0002 in methanol was prepared using an internal spiking solution (500 μg/mL SDC-TRAP-0002 in DMSO). Using the 10 mM stock solutions of the SDC-TRAP molecule and its Hsp90i binding moiety and effector moiety in DMSO, spiking solutions were prepared at 0.025, 0.05, 0.1, 0.5, 1, 5, 10, 50, 100, 250, and 500 μM in DMSO. 5 μL of each spiking solution was added to a 96-deep well plate.
(§3) Quality control standards were prepared from 5 μL of 0.1, 1, and 10 μM calibration standard spiking solution added in triplicate into 96-deep well plate and adding 50 μL of matrix (plasma or homogenized tumor).
(§4) To prepare test samples, test plasma was diluted as needed using blank plasma. Tumor samples were pulverized in liquid nitrogen, weighed, and homogenized in PBS at 5× volume to sample weight. 50 μL of unknown plasma or homogenized tumor sample was mixed with 5 μL of DMSO. The samples were extracted by precipitating calibration standards, QC standards, and unknown samples with 200 μL of internal standard solution. The samples were mixed by vortex at room temperature for approximately 1.5 minutes, then centrifuge at 2-8° C. 150 μL of supernatant was collected and 25 μL of water added. Samples were mixed and analyzed by LC-MS/MS.
(§5) Samples of plasma, heart and tumor were excised from a euthanized mouse, homogenized in PBS at 5 times tissue weight and diluted in 5 μL DMSO/50 μL sample. Prior to analysis, 55 μL samples and calibration standards were precipitated in 200 μL methanol in 96-well plates. Samples were mixed on a vortex mixer for 1.5 minutes at 1500 rpm at room temperature, then centrifuged at 4400 rpm for 10 minutes at 8° C. 150 μL of each supernatant was transferred to a well of a new 96-well plate, and 25 μL of water was added and mixed with the sample. […] For the analysis of samples from female SCID mice, a gradient of solvent A (water/0.1% formic acid) and B (acetonitrile/0.1% formic acid) was used as in Table A below.
The nature of data set [2]: in vivo. The following applies: mouse.
Procedure: as §1, §2, §3, §4, §5
Data set [3] relates to HER2. As to the kind of experiment: HER2 degradation assay with BT-474 cell line (Example 12, FACS). In kind it is cell-based. As to conditions: Homo sapiens; BT-474 cells.
Data set [4] has as its system HER2. As to the kind of experiment: HER2 degradation in BT-474 cells (Example 3, Western blot / in-cell imaging). In kind it is cell-based, human. As to conditions: BT-474 cells, overnight; 17-AAG at 0.5 μM. (In general: A western blot detects proteins with antibodies after separation by electrophoresis.)
Procedure: BT-474 cells are plated in the interior 60 wells of a 96 well black clear bottom plate (20,000 cells/well) in DMEM medium, with DMEM media in the surrounding 36 wells, and incubated at 37° C. with 5% CO2 overnight. On the second day, concentration response curve source plates are produced (10 point, 3-fold dilution of compounds in DMSO) followed by a 1:30 dilution in an intermediate dilution plate containing DMEM. Compound is transferred from the intermediate plate to the cell plate at a dilution of 1:10.
Cells are then fixed in 4% phosphate-buffered paraformaldehyde for 30 minutes at room temperature and then permeabilized by washing five times with 0.1% Triton X-100 in PBS for 5 minutes at room temperature on a shaker. […] Cells are washed 5 times with 0.1% Tween-20 in PBS for 5 minutes at room temperature on a shaker and imaged on a LI-COR Odyssey imaging station. The raw data is normalized to DRAQ5 and the HER2 EC50 is calculated using XLfit™.

By Kp is commonly meant the ratio of the level in a tissue or fluid to that in plasma or blood. In data set [1], `CCc1c2c(nc3ccc(OC(=O)N4CCN(Cc5ccc(-n6c(O)nnc6-c6cc(C(C)C)c(O)cc6O)cc5)CC4)cc13)-c1cc3c(c(=O)n1C2)COC(=O)C3(O)CC` (stereo not shown) [SDC-TRAP-0046, 4,11-diethyl-4-hydroxy-3,14-dioxo-3,4,12,14-tetrahydro-1H-pyrano[3′,4′:6,7]indolizino[1,2-b]quinolin-9-yl 4-(4-(3-(2,4-dihydroxy-5-isopropylphenyl)-5-hydroxy-4H-1,2,4-triazol-4-yl)benzyl)piperazine-1-carboxylate] showed a Kp at 6 h of 0.844, a Kp at 12 h of 2.2, a Kp at 24 h of 40.3 and a Kp at […] of 0.0193. Moreover, in data set [1], the concentration at 6 h was 5.88 µM, the concentration at 12 h came out at 2370 nM and the concentration at 24 h is 54.2 nM.
For `COc1ccc(-c2cnoc2-c2cc(OC)c(OC)c(OC)c2)cc1OC(=O)N1CCN(Cc2ccc(-n3c(O)nnc3-c3cc(C(C)C)c(O)cc3O)cc2)CC1` [SDC-TRAP-0098, 2-Methoxy-5-(5-(3,4,5-trimethoxyphenyl)isoxazol-4-yl)phenyl-4-(4-(3-(2,4-dihydroxy-5-isopropylphenyl)-5-hydroxy-4H-1,2,4-triazol-4-yl)benzyl)piperazine-1-carboxylate], in data set [1], the Kp at 1 h was found to be 0.62, the Kp at 6 h is 8.22, the Kp at 24 h turned out to be 300 and the Kp at […] is 0.01.
As for `CCc1c2c(nc3ccc(O)cc13)-c1cc3c(c(=O)n1C2)COC(=O)C3(CC)OC(=O)CN1CCN(c2ccc(-n3c(O)nnc3-c3cc(C(C)C)c(O)cc3O)cc2)CC1` (stereo not shown) [SDC-TRAP-0056, 4,11-diethyl-9-hydroxy-3,14-dioxo-3,4,12,14-tetrahydro-1H-pyrano[3′,4′:6,7]indolizino[1,2-b]quinolin-4-yl 2-(4-(4-(3-(2,4-dihydroxy-5-isopropylphenyl)-5-hydroxy-4H-1,2,4-triazol-4-yl)phenyl)piperazin-1-yl)acetate], the Kp in data set [2] (Tumor/Plasma Ratio, Tissue Distribution Data for SDC-TRAP-0056, time 6 h) is 1.28; in data set [2] (Tumor/Plasma Ratio, Tissue Distribution Data for SDC-TRAP-0056, time 12 h) it was 1.95; in data set [2] (Tumor/Plasma Ratio, Tissue Distribution Data for SDC-TRAP-0056, time […]), 0.00525.
Turning to `CCc1c2c(nc3ccc(OC(=O)N4CCN(c5ccc(-n6c(O)nnc6-c6cc(C(C)C)c(O)cc6O)cc5)CC4)cc13)-c1cc3c(c(=O)n1C2)COC(=O)C3(O)CC` (stereo not shown) [SDC-TRAP-0045, 4,11-diethyl-4-hydroxy-3,14-dioxo-3,4,12,14-tetrahydro-1H-pyrano[3′,4′:6,7]indolizino[1,2-b]quinolin-9-yl 4-(4-(3-(2,4-dihydroxy-5-isopropylphenyl)-5-hydroxy-4H-1,2,4-triazol-4-yl)phenyl)piperazine-1-carboxylate], in data set [1], the Kp at 6 h stood at 1.35, the Kp at 12 h was determined as 8.02, the Kp at […] is 0.00624 and the concentration at 6 h worked out at 1.88 µM. In data set [1], this molecule registered a concentration at 12 h of 141 nM and a concentration at 24 h of 11.3 nM.
By IC50 is commonly meant the concentration needed to halve the response being measured. As for `CC(C)c1cc(-c2nnc(O)n2-c2ccc(CC3CCN(CC(=O)Nc4cccc5c4CN(C4CCC(=O)NC4=O)C5=O)CC3)cc2)c(O)cc1O` (stereo not shown) [SDC-TRAP-0116, 2-(4-(4-(3-(2,4-dihydroxy-5-isopropylphenyl)-5-hydroxy-4H-1,2,4-triazol-4-yl)benzyl)piperidin-1-yl)-N-(2-(2,6-dioxopiperidin-3-yl)-1-oxoisoindolin-4-yl)acetamide], the IC50 in data set [3] is 0.967 µM. In data set [2] (Plasma Conc.), this molecule gave a concentration at 1 h of 65.2 µM, a concentration at 6 h of 595 nM, a concentration at 24 h of 11.1 nM and a concentration at 48 h of 31.5 nM. In addition, in data set [2] (Tumor/Plasma Ratio), the Kp at 1 h stood at 0.21, the Kp at 6 h is 10.2, the Kp at 24 h worked out at 251 and the Kp at 48 h came to 46.5. Also, the concentration ratio (Kp) at […] in data set [2] (Tumor/Plasma Ratio) worked out at 0.03.
As for `CCNC(=O)c1nnc(-c2cc(C(C)C)c(O)cc2O)n1-c1ccc(CN2CCC(C(=O)N3CCN(c4cc(C)c(OC(=O)Nc5cccc6c5CN(C5CCC(=O)NC5=O)C6=O)c(C)c4)CC3)CC2)cc1` (stereo not shown) [SDC-TRAP-0195, 4-(4-(1-(4-(3-(2,4-dihydroxy-5-isopropylphenyl)-5-(ethylcarbamoyl)-4H-1,2,4-triazol-4-yl)benzyl)piperidine-4-carbonyl)piperazin-1-yl)-2,6-dimethylphenyl (2-(2,6-dioxopiperidin-3-yl)-1-oxoisoindolin-4-yl)carbamate], in data set [1], the Kp at 1 h was determined as 0.109, the Kp at 6 h was 2.36, the Kp at 24 h is 5.5 and the partition ratio (Kp) at […] stood at 0.014. Besides, in data set [1], the concentration at 1 h came to 211 µM, the concentration at 6 h was 7.23 µM and the concentration at 24 h turned out to be 2030 nM.
Regarding `CC(C)c1cc(-c2nnc(O)n2-c2ccc(CN3CCN(C(=O)Oc4ccc(COC(=O)Nc5cccc6c5CN(C5CCC(=O)NC5=O)C6=O)cc4)CC3)c(F)c2)c(O)cc1O` (stereo not shown) [SDC-TRAP-0171, 4-((((2-(2,6-dioxopiperidin-3-yl)-1-oxoisoindolin-4-yl)carbamoyl)oxy)methyl)phenyl-4-(4-(3-(2,4-dihydroxy-5-isopropylphenyl)-5-hydroxy-4H-1,2,4-triazol-4-yl)-2-fluorobenzyl)piperazine-1-carboxylate], in data set [1], the Kp at 1 h is 0.249, the Kp at 6 h came out at 3.1, the concentration ratio (Kp) at 24 h is 407 and the Kp at […] worked out at 0.0164. In data set [1], the concentration at 1 h is 32.2 µM, the concentration at 6 h was determined as 1.21 µM and the concentration at 24 h was 1.62 nM.
`C=CCNC1=C2C[C@@H](C)C[C@H](OC)[C@H](O)[C@@H](C)/C=C(\C)[C@H](OC(N)=O)[C@@H](OC)/C=C\C=C(/C)C(=O)NC(=CC1=O)C2=O` [17-AAG, reference compound]: the “degradation of HER2” value in data set [4] is “partial degradation of HER2”.
As to `CCNC(=O)c1nnc(-c2cc(C(C)C)c(O)cc2O)n1-c1ccc(Oc2ccc(C(=O)N3CCC(C(=O)OC4(CC)C(=O)OCc5c4cc4n(c5=O)Cc5c-4nc4ccc(O)cc4c5CC)CC3)cc2)cc1` (stereo not shown) [SDC-TRAP-0154, 4,11-Diethyl-9-hydroxy-3,14-dioxo-3,4,12,14-tetrahydro-1H-pyrano[3′,4′:6,7]indolizino[1,2-b]quinolin-4-yl 1-(4-(4-(3-(2,4-dihydroxy-5-isopropylphenyl)-5-(ethylcarbamoyl)-4H-1,2,4-triazol-4-yl)phenoxy)benzoyl)piperidine-4-carboxylate], the Kp is 0.06 in data set [2] (Tumor/Plasma Ratio, Tissue Distribution Data for SDC-TRAP-0154, time 1 h); 1.86 in data set [2] (Tumor/Plasma Ratio, Tissue Distribution Data for SDC-TRAP-0154, time 6 h); 11.9 in data set [2] (Tumor/Plasma Ratio, Tissue Distribution Data for SDC-TRAP-0154, time 24 h); 86 in data set [2] (Tumor/Plasma Ratio, Tissue Distribution Data for SDC-TRAP-0154, time 48 h); 0.01 in data set [2] (Tumor/Plasma Ratio, Tissue Distribution Data for SDC-TRAP-0154, time […]).
`CC(C)c1cc(-c2nnc(O)n2-c2ccc(N3CCN(C(=O)c4ccc(COC(=O)Nc5cccc6c5CN(C5CCC(=O)NC5=O)C6=O)cc4)CC3)cc2)c(O)cc1O` (stereo not shown) [SDC-TRAP-0156, 4-(4-(4-(3-(2,4-Dihydroxy-5-isopropylphenyl)-5-hydroxy-4H-1,2,4-triazol-4-yl)phenyl)piperazine-1-carbonyl)benzyl (2-(2,6-dioxopiperidin-3-yl)-1-oxoisoindolin-4-yl)carbamate] returned an IC50 in data set [3] of 3.5 µM.
The molecule `CC(C)c1cc(-c2nnc(O)n2-c2ccc(N3CCN(CCCC(=O)Nc4cccc5c4CN(C4CCC(=O)NC4=O)C5=O)CC3)cc2)c(O)cc1O` (stereo not shown) [SDC-TRAP-0126, 4-(4-(4-(3-(2,4-dihydroxy-5-isopropylphenyl)-5-hydroxy-4H-1,2,4-triazol-4-yl)phenyl)piperazin-1-yl)-N-(2-(2,6-dioxopiperidin-3-yl)-1-oxoisoindolin-4-yl) butanamide] came in with an IC50 in data set [3] of 8.64 µM.
